Measured values: PMC4380750 (Bioorganic & medicinal chemistry, 2015)

Experiments:
MOR [1] = biological target: T1, MOR (Mus musculus, UniProt P42866); experiment: biochemical; conditions: for Emax: read-out: MOR [35S]GTPγS Binding %Emax of DAMGO; for less potent than naltrexone in the MOR [35S]GTPγS binding assay: EC50 compared with naltrexone
KOR [2] = conditions: electrically stimulated guinea pig ileal longitudinal muscle; cited from earlier work
DOR [3] = biological target: T2, DOR (Mus musculus, UniProt P32300); experiment: Radioligand competition binding assay, [3H]naltrindole, mDOR-CHO cell membranes; conditions: ratio of Ki values, MOR vs DOR
Swiss-Webster mice [4] = experiment: Opioid withdrawal assays in chronic morphine-pelleted mice; format: in vivo, mouse
KOR [5] = conditions: binding affinity; cited from earlier work
DOR [6] = biological target: T2, DOR; experiment: DOR [35S]GTPγS binding functional assay; format: biochemical; conditions: vs naltrexone
MOR [7] = biological target: T1, MOR; format: binding
Swiss-Webster mice [8] = experiment: Warm-water tail immersion assay, agonism study; format: in vivo, mouse
KOR [9] = biological target: KOR (Mus musculus, UniProt P33534); experiment: KOR [35S]GTPγS binding functional assay; format: biochemical
hMOR = hMOR (Homo sapiens, UniProt P35372); experiment: Ca2+ flux assay in Gαqi5 transfected hMOR-CHO cells; format: cell-based; conditions: for agonism, increase of intracellular Ca2+ level: agonism study, compared to DAMGO
[10] = 1 mg/kg s.c., morphine-pelleted mice, counted over 20 min

T2 sequence (P32300 whole entry): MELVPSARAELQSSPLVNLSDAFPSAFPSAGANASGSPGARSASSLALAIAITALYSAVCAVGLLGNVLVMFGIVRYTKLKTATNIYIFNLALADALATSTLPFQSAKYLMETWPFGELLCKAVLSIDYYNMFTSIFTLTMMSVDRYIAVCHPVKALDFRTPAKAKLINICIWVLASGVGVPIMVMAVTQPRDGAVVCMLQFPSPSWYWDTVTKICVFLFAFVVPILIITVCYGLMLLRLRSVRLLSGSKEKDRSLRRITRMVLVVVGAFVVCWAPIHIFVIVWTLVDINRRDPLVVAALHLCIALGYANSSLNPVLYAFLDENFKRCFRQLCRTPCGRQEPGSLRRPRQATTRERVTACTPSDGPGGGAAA
Sequence of hMOR (P35372 whole entry): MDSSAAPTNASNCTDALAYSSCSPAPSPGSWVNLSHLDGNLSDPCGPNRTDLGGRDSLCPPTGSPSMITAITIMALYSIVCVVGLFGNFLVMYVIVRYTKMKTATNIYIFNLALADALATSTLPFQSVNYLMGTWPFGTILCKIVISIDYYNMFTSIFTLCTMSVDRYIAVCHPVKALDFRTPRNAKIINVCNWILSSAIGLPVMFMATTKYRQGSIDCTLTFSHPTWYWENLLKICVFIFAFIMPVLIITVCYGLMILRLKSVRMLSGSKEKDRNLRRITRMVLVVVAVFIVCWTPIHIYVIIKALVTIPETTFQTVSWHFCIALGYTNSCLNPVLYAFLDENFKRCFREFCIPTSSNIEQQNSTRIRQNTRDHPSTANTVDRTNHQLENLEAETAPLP
T1 sequence (P42866 whole entry): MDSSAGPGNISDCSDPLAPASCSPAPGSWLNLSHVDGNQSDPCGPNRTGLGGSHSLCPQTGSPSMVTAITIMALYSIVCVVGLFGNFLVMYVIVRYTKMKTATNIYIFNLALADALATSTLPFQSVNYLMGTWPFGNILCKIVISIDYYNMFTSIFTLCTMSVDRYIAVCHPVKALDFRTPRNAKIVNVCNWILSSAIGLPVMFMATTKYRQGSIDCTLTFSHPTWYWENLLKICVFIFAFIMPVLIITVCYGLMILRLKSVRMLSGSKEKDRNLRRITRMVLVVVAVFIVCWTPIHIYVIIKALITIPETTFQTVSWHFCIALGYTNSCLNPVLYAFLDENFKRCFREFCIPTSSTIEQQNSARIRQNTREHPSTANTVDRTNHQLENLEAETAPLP
Sequence of KOR (Mus musculus, UniProt P33534) (P33534 whole entry): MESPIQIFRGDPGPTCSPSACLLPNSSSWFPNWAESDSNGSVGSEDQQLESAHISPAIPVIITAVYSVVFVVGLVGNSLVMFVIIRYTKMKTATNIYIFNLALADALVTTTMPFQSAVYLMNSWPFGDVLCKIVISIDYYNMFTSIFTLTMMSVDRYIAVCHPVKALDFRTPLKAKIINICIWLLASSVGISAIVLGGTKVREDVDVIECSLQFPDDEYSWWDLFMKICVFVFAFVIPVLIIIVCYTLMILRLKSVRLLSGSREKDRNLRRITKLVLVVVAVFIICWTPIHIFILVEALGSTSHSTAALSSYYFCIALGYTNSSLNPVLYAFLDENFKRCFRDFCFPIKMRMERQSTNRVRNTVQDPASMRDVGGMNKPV

O=C(Cc1cc2ccccc2cn1)N[C@H]1CC[C@@]2(O)[C@H]3Cc4ccc(O)c5c4[C@@]2(CCN3CC2CC2)[C@H]1O5 [Compound 1, 17-Cyclopropylmethyl-3,14β-dihydroxy-4,5α-epoxy-6α-[2-(isoquinolin-3-yl)acetamido)morphinan]
Emax (MOR [1]): 18.6 ± 1.1%

CN1Cc2ccccc2C[C@H]1C(=O)N[C@H]1CC[C@@]2(O)[C@H]3Cc4ccc(O)c5c4[C@@]2(CCN3CC2CC2)[C@H]1O5 [Compound 15, 17-Cyclopropylmethyl-3,14β-dihydroxy-4,5α-epoxy-6α-[(S)-(2-methyl-1,2,3,4-tetrahydroisoquinoline-3-carboxamido)]morphinan]
Emax (MOR [1]): 24.8 ± 1.3%

NC(N)=Nc1ccc2c3c([nH]c2c1)[C@@H]1Oc2c(O)ccc4c2[C@@]12CCN(CC1CC1)[C@H](C4)[C@]2(O)C3 [6’-GNTI]
functional activity at KOR (KOR [2]): KOR full agonist

O=C(N[C@H]1CC[C@@]2(O)[C@H]3Cc4ccc(O)c5c4[C@@]2(CCN3CC2CC2)[C@H]1O5)c1ncc2ccccc2n1 [Compound 7, 17-Cyclopropylmethyl-3,14β-dihydroxy-4,5α-epoxy-6α-(4-quinazoline-2-carboxamido)morphinan]
Emax (MOR [1]): 21.6 ± 0.8%

O=C(N[C@H]1CC[C@@]2(O)[C@H]3Cc4ccc(O)c5c4[C@@]2(CCN3CC2CC2)[C@H]1O5)c1nc(Cl)c2ccccc2c1O [Compound 5, 17-Cyclopropylmethyl-3,14β-dihydroxy-4,5α-epoxy-6α-(1-chloro-4-hydroxyisoquinoline-3-carboxamido)morphinan]
Emax (MOR [1]): 19.8 ± 0.8% | Selectivity δ/µ (DOR [3]): > 15

Cc1nc(C(=O)N[C@H]2CC[C@@]3(O)[C@H]4Cc5ccc(O)c6c5[C@@]3(CCN4CC3CC3)[C@H]2O6)cc2ccccc12 [Compound 10, 17-Cyclopropylmethyl-3,14β-dihydroxy-4,5α-epoxy-6α-(1-methylisoquinolin-3-carboxamido)morphinan]
Emax (MOR [1]): 22.2 ± 0.4%

O=C1CC[C@@]2(O)[C@H]3Cc4ccc(O)c5c4[C@@]2(CCN3CC2CC2)[C@H]1O5 [NTX, naltrexone, reference compound]
escape jumps (Swiss-Webster mice [4]; [10]): 30.0 ± 12.1 times | wet-dog shakes (Swiss-Webster mice [4]; [10]): 14.8 ± 2.2 times

O=C(CNC(=O)c1cc2ccccc2cn1)N[C@H]1CC[C@@]2(O)[C@H]3Cc4ccc(O)c5c4[C@@]2(CCN3CC2CC2)[C@H]1O5 [Compound 3, 17-Cyclopropylmethyl-3,14β-dihydroxy-4,5α-epoxy-6α-[2-(isoquinoline-3-carboxamido)acetamido}morphinan]
Emax (MOR [1]): < 15%

O=C(CCc1cc2ccccc2cn1)N[C@H]1CC[C@@]2(O)[C@H]3Cc4ccc(O)c5c4[C@@]2(CCN3CC2CC2)[C@H]1O5 [Compound 2, 17-Cyclopropylmethyl-3,14β-dihydroxy-4,5α-epoxy-6α-[3-(isoquinolin-3-yl)propanamido)morphinan]
Emax (MOR [1]): 27.4 ± 0.35%

CN(C)c1ccc2cc(C(=O)N[C@H]3CC[C@@]4(O)[C@H]5Cc6ccc(O)c7c6[C@@]4(CCN5CC4CC4)[C@H]3O7)ncc2c1 [Compound 13, 17-Cyclopropylmethyl-3,14β-dihydroxy-4,5α-epoxy-6α-(7-dimethylaminoisoquinoline-3-carboxamido)morphinan]
Selectivity δ/µ (DOR [3]): > 15

O=C(N[C@H]1CC[C@@]2(O)[C@H]3Cc4ccc(O)c5c4[C@@]2(CCN3CC2CC2)[C@H]1O5)c1cc2ccc([N+](=O)[O-])cc2cn1 [Compound 12, 17-Cyclopropylmethyl-3,14β-dihydroxy-4,5α-epoxy-6α-(7-nitroisoquinoline-3-carboxamido)morphinan]
less potent than naltrexone in the MOR [35S]GTPγS binding assay (MOR [1]): ≥ 200 fold

COc1cc2cnc(C(=O)N[C@H]3CC[C@@]4(O)[C@H]5Cc6ccc(O)c7c6[C@@]4(CCN5CC4CC4)[C@H]3O7)cc2cc1OC [Compound 14, 17-Cyclopropylmethyl-3,14β-dihydroxy-4,5α-epoxy-6α-(6,7-dimethoxyisoquinoline-3-carboxamido)morphinan]
less potent than naltrexone in the MOR [35S]GTPγS binding assay (MOR [1]): ≥ 200 fold

N#Cc1nc(C(=O)N[C@H]2CC[C@@]3(O)[C@H]4Cc5ccc(O)c6c5[C@@]3(CCN4CC3CC3)[C@H]2O6)cc2ccccc12 [Compound 9, 17-Cyclopropylmethyl-3,14β-dihydroxy-4,5α-epoxy-6α-(1-cyanoisoquinoline-3-carboxamido)morphinan]
Emax (MOR [1]): 37.5 ± 0.7%

NC(N)=Nc1ccc2[nH]c3c(c2c1)C[C@@]1(O)[C@H]2Cc4ccc(O)c5c4[C@@]1(CCN2CC1CC1)[C@H]3O5 [5’-GNTI, 5’-guanidinonaltrindole]
functional activity at KOR (KOR [2]): KOR antagonist | 5’-GNTI more potent than 6’-GNTI at the KOR (KOR [5]): 8 fold

COc1c(C(=O)N[C@H]2CC[C@@]3(O)[C@H]4Cc5ccc(O)c6c5[C@@]3(CCN4CC3CC3)[C@H]2O6)nc(Cl)c2ccccc12 [Compound 4, 17-Cyclopropylmethyl-3,14β-dihydroxy-4,5α-epoxy-6α-(1-chloro-4-methoxyisoquinoline-3-carboxamido)morphinan]
DOR [35S]GTPγS potency, less potent compared to naltrexone (DOR [6]): 7- to 25 fold | difference between the potencies of 4 and morphine in the MOR [35S]GTPγS binding assay (MOR [1]): ~70 fold | 4 more potent than 11 in the radioligand competition binding assay (MOR [7]): about 10 fold | % MPE, intrinsic antinociceptive effect (Swiss-Webster mice [8]; 10 mg/kg s.c., 20 min after injection, mice, 56 °C): full agonist | difference between the potencies of 4 and morphine in the tail immersion assay (Swiss-Webster mice [8]; vs morphine): ~9 fold | Emax (KOR [9]; read-out: KOR [35S]GTPγS Binding % Emax of U50,488): 7.1 ± 0.5% | agonism, increase of intracellular Ca2+ level (hMOR): did not show any significant agonist activity | higher potency of 4 to 11 in Ca2+ flux antagonism study (hMOR; vs compound 11): 100 fold

O=C(N[C@H]1CC[C@@]2(O)[C@H]3Cc4ccc(O)c5c4[C@@]2(CCN3CC2CC2)[C@H]1O5)c1cc2ccccc2cn1 [NAQ, 17-cyclopropylmethyl-3,14β-dihydroxy-4,5α-epoxy-6α-(isoquinoline-3′-carboxamido)morphinan, reference compound]
DOR [35S]GTPγS potency, less potent compared to naltrexone (DOR [6]): 7- to 25 fold

O=C(N[C@H]1CC[C@@]2(O)[C@H]3Cc4ccc(O)c5c4[C@@]2(CCN3CC2CC2)[C@H]1O5)c1ncc2ccccc2c1O [Compound 6, 17-Cyclopropylmethyl-3,14β-dihydroxy-4,5α-epoxy-6α-(4-hydroxyisoquinoline-3-carboxamido)morphinan]
Emax (MOR [1]): 20.5 ± 0.9%

O=C(N[C@H]1CC[C@@]2(O)[C@H]3Cc4ccc(O)c5c4[C@@]2(CCN3CC2CC2)[C@H]1O5)c1cc2cc([N+](=O)[O-])ccc2cn1 [Compound 11, 17-Cyclopropylmethyl-3,14β-dihydroxy-4,5α-epoxy-6α-(6-nitroisoquinoline-3-carboxamido)morphinan]
DOR [35S]GTPγS potency, less potent compared to naltrexone (DOR [6]): 7- to 25 fold | less potent than naltrexone in the MOR [35S]GTPγS binding assay (MOR [1]): ≥ 200 fold | KOR [35S]GTPγS potency, lower than that of NAQ (KOR [9]; vs NAQ): ~6 fold | KOR [35S]GTPγS potency, less potent than naltrexone (KOR [9]; vs naltrexone): ~80 fold | agonism, increase of intracellular Ca2+ level (hMOR): no apparent agonism | withdrawal symptoms in placebo-pelleted mice (Swiss-Webster mice [4]; 30 mg/kg s.c., placebo-pelleted mice): did not induce any significant withdrawal symptoms | escape jumps in morphine-pelleted mice, dose dependence (Swiss-Webster mice [4]; s.c., doses up to 100 mg/kg, plateau at 100 mg/kg): did not precipitate significant jumps in morphine-pelleted mice until 30 mg/kg | wet-dog shakes in morphine-pelleted mice compared to naltrexone (Swiss-Webster mice [4]; s.c., doses up to 100 mg/kg, vs naltrexone 1 mg/kg): significantly less wet-dog shakes
